According to article doi:10.1101/2021.04.08.439011v1 (biorxiv, 2021):
Where two headings read alike, the source gives them in different places.

Assays:
[1] = target: MELK (Homo sapiens, UniProt Q14680); details: 0.1 µM; binder
[2] = target: CAMK2A (Homo sapiens, UniProt Q9UQM7); details: 0.1 µM; binder
[3] = target: PRKD3 (Homo sapiens, UniProt O94806); details: 0.1 µM; binder
[4] = target: MET(M1250T) (Homo sapiens, UniProt P08581, M1250T); details: 0.1 µM; binder
[5] = target: ABL1(F317L) (Homo sapiens, UniProt P00519, F317L); details: 0.1 µM, binder
[6] = target: NEK11 (Homo sapiens, UniProt Q8NG66); details: 0.1 µM; binder
[7] = target: DCAMKL2 (Homo sapiens, UniProt Q8N568); details: 0.1 µM; binder
[8] = target: SRPK3 (Homo sapiens, UniProt Q9UPE1); details: 0.1 µM; binder
[9] = target: CIT (Homo sapiens, UniProt O14578); details: 0.1 µM; binder
CIT, sequence (O14578 whole entry): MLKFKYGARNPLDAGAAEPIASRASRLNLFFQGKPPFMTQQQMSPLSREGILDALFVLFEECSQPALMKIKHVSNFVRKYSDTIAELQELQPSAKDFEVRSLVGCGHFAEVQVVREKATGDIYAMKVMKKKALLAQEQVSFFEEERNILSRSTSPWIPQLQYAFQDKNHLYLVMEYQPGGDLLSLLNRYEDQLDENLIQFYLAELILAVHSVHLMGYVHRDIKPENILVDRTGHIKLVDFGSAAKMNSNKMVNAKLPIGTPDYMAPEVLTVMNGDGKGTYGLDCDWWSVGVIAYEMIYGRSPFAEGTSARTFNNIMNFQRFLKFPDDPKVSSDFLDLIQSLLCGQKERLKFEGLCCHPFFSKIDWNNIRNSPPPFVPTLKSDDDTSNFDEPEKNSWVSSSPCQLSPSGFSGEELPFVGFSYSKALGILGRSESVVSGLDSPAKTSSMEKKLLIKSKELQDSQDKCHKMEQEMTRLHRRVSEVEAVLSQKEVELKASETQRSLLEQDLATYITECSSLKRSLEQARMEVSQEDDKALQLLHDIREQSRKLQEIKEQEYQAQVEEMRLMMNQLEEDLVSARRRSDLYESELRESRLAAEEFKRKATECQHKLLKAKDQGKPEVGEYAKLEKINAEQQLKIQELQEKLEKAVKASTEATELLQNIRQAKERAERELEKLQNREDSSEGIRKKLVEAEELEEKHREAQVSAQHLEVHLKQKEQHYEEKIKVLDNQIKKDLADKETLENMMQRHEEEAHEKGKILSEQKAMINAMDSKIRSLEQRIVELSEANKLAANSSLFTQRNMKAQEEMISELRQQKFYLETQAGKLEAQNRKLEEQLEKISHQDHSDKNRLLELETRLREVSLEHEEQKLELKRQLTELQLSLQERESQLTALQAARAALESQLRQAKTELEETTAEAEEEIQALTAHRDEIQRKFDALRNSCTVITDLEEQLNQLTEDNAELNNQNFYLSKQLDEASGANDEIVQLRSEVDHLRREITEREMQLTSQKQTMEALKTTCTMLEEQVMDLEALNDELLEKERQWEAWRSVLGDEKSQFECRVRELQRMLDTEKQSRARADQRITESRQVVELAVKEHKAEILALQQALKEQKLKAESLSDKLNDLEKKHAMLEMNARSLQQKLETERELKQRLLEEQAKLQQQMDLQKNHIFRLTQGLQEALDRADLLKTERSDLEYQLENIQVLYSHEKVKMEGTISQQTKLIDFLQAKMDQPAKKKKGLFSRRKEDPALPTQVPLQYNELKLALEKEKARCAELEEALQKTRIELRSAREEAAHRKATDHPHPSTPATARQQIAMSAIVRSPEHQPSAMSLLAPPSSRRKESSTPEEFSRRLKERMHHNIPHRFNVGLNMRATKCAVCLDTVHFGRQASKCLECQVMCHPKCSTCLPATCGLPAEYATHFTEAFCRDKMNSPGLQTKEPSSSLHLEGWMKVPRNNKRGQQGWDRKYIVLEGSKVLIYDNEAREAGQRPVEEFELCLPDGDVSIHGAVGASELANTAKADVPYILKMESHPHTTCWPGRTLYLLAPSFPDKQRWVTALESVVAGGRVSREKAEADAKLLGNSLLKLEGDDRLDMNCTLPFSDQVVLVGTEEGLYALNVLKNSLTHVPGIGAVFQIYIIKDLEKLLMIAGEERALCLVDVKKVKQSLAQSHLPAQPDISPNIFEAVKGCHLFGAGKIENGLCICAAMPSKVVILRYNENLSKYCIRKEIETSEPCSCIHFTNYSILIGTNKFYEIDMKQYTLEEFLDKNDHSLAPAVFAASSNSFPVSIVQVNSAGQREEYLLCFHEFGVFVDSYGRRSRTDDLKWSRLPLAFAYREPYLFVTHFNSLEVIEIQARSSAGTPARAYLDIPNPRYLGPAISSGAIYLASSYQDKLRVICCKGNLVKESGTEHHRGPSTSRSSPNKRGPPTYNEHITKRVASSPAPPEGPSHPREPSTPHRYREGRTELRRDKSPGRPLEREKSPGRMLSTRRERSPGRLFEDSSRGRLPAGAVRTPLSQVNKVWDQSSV

[10] = target: SRPK1 (Homo sapiens, UniProt Q96SB4); details: 0.1 µM; binder
[11] = target: FER (Homo sapiens, UniProt P16591); details: 0.1 µM; binder
[12] = target: PFTK1 (Homo sapiens, UniProt O94921); details: 0.1 µM; binder
[13] = target: MEK5 (Homo sapiens, UniProt Q13163); details: 0.1 µM; binder
[14] = target: PHKG2 (Homo sapiens, UniProt P15735); details: 0.1 µM; binder
[15] = target: ICK (Homo sapiens, UniProt Q9UPZ9); details: 0.1 µM; binder
[16] = target: BMPR1B (Homo sapiens, UniProt O00238); details: 0.1 µM; binder
[17] = target: PIM2 (Homo sapiens, UniProt Q9P1W9); details: 0.1 µM; binder
[18] = target: TBK1 (Homo sapiens, UniProt Q9UHD2); details: 0.1 µM; binder
TBK1, sequence (Q9UHD2 whole entry): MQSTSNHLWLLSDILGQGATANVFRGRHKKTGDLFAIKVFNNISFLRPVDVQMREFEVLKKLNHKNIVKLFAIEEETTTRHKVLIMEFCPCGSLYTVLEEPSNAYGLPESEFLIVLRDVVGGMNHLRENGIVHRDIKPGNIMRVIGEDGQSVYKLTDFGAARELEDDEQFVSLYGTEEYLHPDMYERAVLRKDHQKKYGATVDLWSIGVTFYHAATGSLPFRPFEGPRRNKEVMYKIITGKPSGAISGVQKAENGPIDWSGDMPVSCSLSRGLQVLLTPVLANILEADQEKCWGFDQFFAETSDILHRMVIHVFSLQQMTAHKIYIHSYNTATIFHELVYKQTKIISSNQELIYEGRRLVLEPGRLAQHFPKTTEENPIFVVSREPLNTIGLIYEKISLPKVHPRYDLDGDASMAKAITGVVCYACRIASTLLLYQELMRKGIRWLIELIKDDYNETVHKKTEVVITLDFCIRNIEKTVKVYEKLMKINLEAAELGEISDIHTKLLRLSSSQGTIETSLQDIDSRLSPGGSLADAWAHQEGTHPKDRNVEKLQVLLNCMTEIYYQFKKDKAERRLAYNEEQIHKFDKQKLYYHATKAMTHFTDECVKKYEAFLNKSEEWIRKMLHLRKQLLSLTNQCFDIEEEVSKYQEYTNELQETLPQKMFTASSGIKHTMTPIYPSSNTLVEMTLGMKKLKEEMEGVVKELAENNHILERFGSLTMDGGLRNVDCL

[19] = target: PDGFRB (Homo sapiens, UniProt P09619); details: 0.1 µM; binder
[20] = target: FGR (Homo sapiens, UniProt P09769); details: 0.1 µM; binder
FGR, sequence (P09769 whole entry): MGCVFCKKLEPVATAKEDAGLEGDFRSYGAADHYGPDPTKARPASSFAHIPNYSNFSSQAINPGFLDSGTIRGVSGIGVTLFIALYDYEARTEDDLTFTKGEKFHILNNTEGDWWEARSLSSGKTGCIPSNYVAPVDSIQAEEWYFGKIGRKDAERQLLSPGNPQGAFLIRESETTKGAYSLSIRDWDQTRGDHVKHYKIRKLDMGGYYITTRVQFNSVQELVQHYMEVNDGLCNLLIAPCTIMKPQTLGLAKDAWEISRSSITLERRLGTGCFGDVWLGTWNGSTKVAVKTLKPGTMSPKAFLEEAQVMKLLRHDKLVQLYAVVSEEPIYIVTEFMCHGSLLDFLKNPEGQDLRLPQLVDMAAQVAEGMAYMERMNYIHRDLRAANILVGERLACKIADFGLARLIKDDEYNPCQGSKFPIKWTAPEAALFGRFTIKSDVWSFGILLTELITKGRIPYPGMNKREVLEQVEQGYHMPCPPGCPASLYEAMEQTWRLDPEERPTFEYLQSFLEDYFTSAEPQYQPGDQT

[21] = target: SIK1 (Homo sapiens, UniProt P57059); details: 0.1 µM; binder
[22] = target: WEE2 (Homo sapiens, UniProt P0C1S8); details: 0.1 µM; binder
[23] = target: LATS1 (Homo sapiens, UniProt O95835); details: 0.1 µM; binder
[24] = target: HIPK1 (Homo sapiens, UniProt Q86Z02); details: 0.1 µM; binder
[25] = target: ABL1(Q252H) (Homo sapiens, UniProt P00519, Q252H); details: 0.1 µM, binder
[26] = target: NEK3 (Homo sapiens, UniProt P51956); details: 0.1 µM; binder
[27] = target: ERBB3 (Homo sapiens, UniProt P21860); details: 0.1 µM; binder
ERBB3, sequence (P21860 whole entry): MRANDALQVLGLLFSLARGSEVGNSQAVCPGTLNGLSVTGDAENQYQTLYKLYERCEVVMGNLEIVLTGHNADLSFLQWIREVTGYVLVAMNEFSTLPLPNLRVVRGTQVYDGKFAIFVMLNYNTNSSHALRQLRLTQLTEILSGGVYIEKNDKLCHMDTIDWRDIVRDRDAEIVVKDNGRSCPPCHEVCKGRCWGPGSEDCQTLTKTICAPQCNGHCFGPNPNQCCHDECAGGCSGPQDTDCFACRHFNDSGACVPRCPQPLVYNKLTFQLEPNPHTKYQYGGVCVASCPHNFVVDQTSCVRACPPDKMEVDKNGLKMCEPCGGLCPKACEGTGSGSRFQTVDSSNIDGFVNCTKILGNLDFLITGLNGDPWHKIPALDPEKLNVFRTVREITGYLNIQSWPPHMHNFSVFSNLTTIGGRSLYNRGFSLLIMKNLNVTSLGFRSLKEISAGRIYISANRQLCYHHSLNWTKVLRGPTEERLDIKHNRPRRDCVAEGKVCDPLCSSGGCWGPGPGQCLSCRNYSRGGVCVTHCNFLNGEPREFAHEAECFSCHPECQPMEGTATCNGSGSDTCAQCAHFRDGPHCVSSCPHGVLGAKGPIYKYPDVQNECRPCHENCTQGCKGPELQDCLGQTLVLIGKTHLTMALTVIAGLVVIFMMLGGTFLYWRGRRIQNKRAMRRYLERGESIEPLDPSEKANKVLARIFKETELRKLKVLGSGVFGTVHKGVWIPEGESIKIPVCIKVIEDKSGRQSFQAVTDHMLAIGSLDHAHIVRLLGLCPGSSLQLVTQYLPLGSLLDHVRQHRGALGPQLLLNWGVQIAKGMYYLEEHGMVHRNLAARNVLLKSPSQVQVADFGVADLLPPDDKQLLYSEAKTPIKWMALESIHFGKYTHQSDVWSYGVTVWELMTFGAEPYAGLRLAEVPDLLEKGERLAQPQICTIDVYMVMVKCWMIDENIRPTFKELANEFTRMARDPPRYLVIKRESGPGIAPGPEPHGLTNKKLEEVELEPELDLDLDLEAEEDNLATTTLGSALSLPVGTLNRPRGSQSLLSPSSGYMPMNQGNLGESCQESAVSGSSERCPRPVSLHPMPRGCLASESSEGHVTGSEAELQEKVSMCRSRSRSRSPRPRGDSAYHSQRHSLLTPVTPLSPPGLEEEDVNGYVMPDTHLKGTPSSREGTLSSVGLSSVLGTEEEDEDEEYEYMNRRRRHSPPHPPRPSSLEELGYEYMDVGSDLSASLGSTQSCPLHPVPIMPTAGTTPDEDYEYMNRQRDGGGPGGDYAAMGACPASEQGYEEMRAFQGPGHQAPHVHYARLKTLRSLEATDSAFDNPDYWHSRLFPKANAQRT

[28] = target: SGK3 (Homo sapiens, UniProt Q96BR1); details: 0.1 µM; binder
[29] = target: PIM3 (Homo sapiens, UniProt Q86V86); details: 0.1 µM; binder
[30] = target: NEK5 (Homo sapiens, UniProt Q6P3R8); details: 0.1 µM; binder
[31] = target: EPHA3 (Homo sapiens, UniProt P29320); details: 0.1 µM; binder

SMILES: CNc1ncc2cc(-c3ccc(-c4cccc(C)n4)cc3Cl)c(=O)n(C[C@H]3OC[C@H](N)CO3)c2n1 [compound 6, G-5555]
- Percent Control [1]: 51%
- Percent Control [2]: 79%
- Percent Control [3]: 95%
- Percent Control [4]: 76%
- Percent Control ([5]; nonphosphorylated): 100%
- Percent Control ([5]; phosphorylated): 95%
- Percent Control [6]: 100%
- Percent Control [7]: 100%
- Percent Control [8]: 100%
- Percent Control [9]: 100%
- Percent Control [10]: 94%
- Percent Control [11]: 100%
- Percent Control [12]: 100%
- Percent Control [13]: 13%
- Percent Control [14]: 100%
- Percent Control [15]: 100%
- Percent Control [16]: 95%
- Percent Control [17]: 100%
- Percent Control [18]: 100%
- Percent Control [19]: 97%
- Percent Control [20]: 100%
- Percent Control [21]: 1.4%
- Percent Control [22]: 100%
- Percent Control [23]: 57%
- Percent Control [24]: 100%
- Percent Control ([25]; nonphosphorylated): 86%
- Percent Control ([25]; phosphorylated): 97%
- Percent Control [26]: 93%
- Percent Control [27]: 77%
- Percent Control [28]: 93%
- Percent Control [29]: 100%
- Percent Control [30]: 100%
- Percent Control [31]: 99%
